These results are taken from publication PMC8409088 (ChemistryOpen, 2020).

Structures can show the parent of a compound that is named as a salt.

Sequence of glutaminyl cyclase (QC, QPCT) (Q16769 33-361): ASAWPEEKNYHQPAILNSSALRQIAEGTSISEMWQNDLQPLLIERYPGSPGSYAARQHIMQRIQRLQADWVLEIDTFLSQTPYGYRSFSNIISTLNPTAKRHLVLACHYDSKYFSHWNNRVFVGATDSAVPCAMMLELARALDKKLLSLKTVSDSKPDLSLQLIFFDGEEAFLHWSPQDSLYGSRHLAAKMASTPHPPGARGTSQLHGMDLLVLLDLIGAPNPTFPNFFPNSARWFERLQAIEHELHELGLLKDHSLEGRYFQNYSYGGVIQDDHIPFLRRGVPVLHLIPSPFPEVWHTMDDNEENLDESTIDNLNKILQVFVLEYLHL

The assay addresses glutaminyl cyclase (QC, QPCT) (Homo sapiens, UniProt Q16769). Kind of assay: glutamic dehydrogenase-coupled assay, NADH absorbance at […] nm. Format: biochemical.
Regarding `Cc1cccc(Cc2c[nH]cn2)c1C` [Detomidine HCl], the Ki was determined as 2.58 ± 0.28 mM.
The value for `CC[C@@H]1C(=O)OC[C@@H]1Cc1cncn1C` [Pilocarpine HCl] was 13.2 ± 7.27 mM.
The compound `Cc1cnc(C(=O)O)c[n+]1[O-]` [Acipimox] came in with a Ki of 6.23 ± 0.85 mM.
With `O=C(/C=C/c1cccc(S(=O)(=O)Nc2ccccc2)c1)NO` [Belinostat (PXD101)] the figure was 2.98 ± 0.67 mM.
